Assay results: PubChem BioAssay AID1963843 (Molecular Pharmacology Branch, DTP, NCI, 2024)

System: 616215-338-R-J1-PDC complex spheroid viability
Assay: Anticancer human tumor 616215-338-R-J1-PDC patient-derived colon adenocarcinoma cell line growth inhibition [POLQ]
Settings: for IC50: curve of first compound; for viability, T/C: stronger effect = lower value
Method in brief: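 Complex spheroid viability model combining PDC tumour cells with endothelial (HUVEC) and MSC stromal cells. Novobiocin, ART-558 or RP6685 were tested singly and in combination with standard and investigational anticancer drugs. Each was titrated in half-log steps from near clinical Cmax, or from 10 microM where Cmax was unknown.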

[1] = second compound 0.0316 µM, first compound 0.0316 µM
[2] = second compound 0.0316 µM, first compound 0.1 µM
[3] = second compound 0.0316 µM, first compound 0.316 µM
[4] = second compound 0.0316 µM, first compound 1 µM
[5] = second compound 0.0316 µM, first compound 3.16 µM
[6] = second compound 0.0316 µM, first compound 10 µM
[7] = second compound 0.1 µM, first compound 0.0316 µM
[8] = second compound 0.1 µM, first compound 0.1 µM
[9] = second compound 0.1 µM, first compound 0.316 µM
[10] = second compound 0.1 µM, first compound 1 µM
[11] = second compound 0.1 µM, first compound 3.16 µM
[12] = second compound 0.1 µM, first compound 10 µM
[13] = second compound 0.316 µM, first compound 0.0316 µM
[14] = second compound 0.316 µM, first compound 0.1 µM
[15] = second compound 0.316 µM, first compound 0.316 µM
[16] = second compound 0.316 µM, first compound 1 µM
[17] = second compound 0.316 µM, first compound 3.16 µM
[18] = second compound 0.316 µM, first compound 10 µM
[19] = second compound 1 µM, first compound 0.0316 µM
[20] = second compound 1 µM, first compound 0.1 µM
[21] = second compound 1 µM, first compound 0.316 µM
[22] = second compound 1 µM, first compound 1 µM
[23] = second compound 1 µM, first compound 3.16 µM
[24] = second compound 1 µM, first compound 10 µM
[25] = second compound 3.16 µM, first compound 0.0316 µM
[26] = second compound 3.16 µM, first compound 0.1 µM
[27] = second compound 3.16 µM, first compound 0.316 µM
[28] = second compound 3.16 µM, first compound 1 µM
[29] = second compound 3.16 µM, first compound 3.16 µM
[30] = second compound 3.16 µM, first compound 10 µM
[31] = second compound 10 µM, first compound 0.0316 µM
[32] = second compound 10 µM, first compound 0.1 µM
[33] = second compound 10 µM, first compound 0.316 µM
[34] = second compound 10 µM, first compound 1 µM
[35] = second compound 10 µM, first compound 3.16 µM
[36] = second compound 10 µM, first compound 10 µM
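Note: spheroids exposed to compounds for one week before readout.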
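Throughout, for viability, T/C: percent viability relative to DMSO vehicle wells taken as 100%.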

SMILES: C=CC(=O)N1CCN(c2nc(=O)n(-c3c(C)ccnc3C(C)C)c3nc(-c4c(O)cccc4F)c(F)cc23)C(C)C1 (stereo unspecified) + Nc1ccc(C#CCN(C(=O)Cc2ncc(C(F)(F)F)cc2C(F)(F)F)c2ccc(F)cc2)nn1
- IC50 (second compound 0.0316 µM): > 10 µM
- IC50 (second compound 0.1 µM): > 10 µM
- IC50 (second compound 0.316 µM): > 10 µM
- IC50 (second compound 1 µM): > 10 µM
- IC50 (second compound 3.16 µM): > 10 µM
- IC50 (second compound 10 µM): > 10 µM
- viability, T/C [1]: 115%
- viability, T/C [2]: 99.3%
- viability, T/C [3]: 96.9%
- viability, T/C [4]: 99.6%
- viability, T/C [5]: 89.2%
- viability, T/C [6]: 66.8%
- viability, T/C [7]: 103%
- viability, T/C [8]: 101%
- viability, T/C [9]: 98.3%
- viability, T/C [10]: 90.6%
- viability, T/C [11]: 85.5%
- viability, T/C [12]: 63.5%
- viability, T/C [13]: 95.2%
- viability, T/C [14]: 96.7%
- viability, T/C [15]: 95.2%
- viability, T/C [16]: 91%
- viability, T/C [17]: 78.8%
- viability, T/C [18]: 62.2%
- viability, T/C [19]: 96.3%
- viability, T/C [20]: 95.2%
- viability, T/C [21]: 96.6%
- viability, T/C [22]: 94.6%
- viability, T/C [23]: 84.4%
- viability, T/C [24]: 67.3%
- viability, T/C [25]: 92.6%
- viability, T/C [26]: 89.2%
- viability, T/C [27]: 97.7%
- viability, T/C [28]: 93.8%
- viability, T/C [29]: 85%
- viability, T/C [30]: 67%
- viability, T/C [31]: 88.2%
- viability, T/C [32]: 94.4%
- viability, T/C [33]: 95.2%
- viability, T/C [34]: 82.9%
- viability, T/C [35]: 87.7%
- viability, T/C [36]: 65.4%

SMILES: CC(C)n1c(=O)n(C)c2cnc3cc(F)c(-c4ccc(OCCCN5CCCCC5)nc4)cc3c21 + Nc1ccc(C#CCN(C(=O)Cc2ncc(C(F)(F)F)cc2C(F)(F)F)c2ccc(F)cc2)nn1
- IC50 (second compound 0.0316 µM): > 10 µM
- IC50 (second compound 0.1 µM): > 10 µM
- IC50 (second compound 0.316 µM): > 10 µM
- IC50 (second compound 1 µM): > 10 µM
- IC50 (second compound 3.16 µM): > 10 µM
- IC50 (second compound 10 µM): > 10 µM
- viability, T/C [1]: 95%
- viability, T/C [2]: 92.2%
- viability, T/C [3]: 103%
- viability, T/C [4]: 101%
- viability, T/C [5]: 111%
- viability, T/C [6]: 103%
- viability, T/C [7]: 93.2%
- viability, T/C [8]: 110%
- viability, T/C [9]: 110%
- viability, T/C [10]: 89.4%
- viability, T/C [11]: 103%
- viability, T/C [12]: 96.4%
- viability, T/C [13]: 96.8%
- viability, T/C [14]: 97.5%
- viability, T/C [15]: 99.5%
- viability, T/C [16]: 97.1%
- viability, T/C [17]: 97.7%
- viability, T/C [18]: 99.2%
- viability, T/C [19]: 107%
- viability, T/C [20]: 99.8%
- viability, T/C [21]: 83.1%
- viability, T/C [22]: 104%
- viability, T/C [23]: 97.4%
- viability, T/C [24]: 86.8%
- viability, T/C [25]: 112%
- viability, T/C [26]: 97.8%
- viability, T/C [27]: 84.7%
- viability, T/C [28]: 90.6%
- viability, T/C [29]: 117%
- viability, T/C [30]: 96.2%
- viability, T/C [31]: 99.5%
- viability, T/C [32]: 79.3%
- viability, T/C [33]: 103%
- viability, T/C [34]: 103%
- viability, T/C [35]: 76.9%
- viability, T/C [36]: 97.5%

SMILES: CC1COCCN1c1cc(C2(S(C)(=N)=O)CC2)nc(-c2ccnc3[nH]ccc23)n1 (stereo unspecified) + Nc1ccc(C#CCN(C(=O)Cc2ncc(C(F)(F)F)cc2C(F)(F)F)c2ccc(F)cc2)nn1
- IC50 (second compound 0.0316 µM): 4.98 µM
- IC50 (second compound 0.1 µM): 5.39 µM
- IC50 (second compound 0.316 µM): 6.77 µM
- IC50 (second compound 1 µM): 5.38 µM
- IC50 (second compound 3.16 µM): 6.99 µM
- IC50 (second compound 10 µM): 2.88 µM
- viability, T/C [1]: 115%
- viability, T/C [2]: 96.5%
- viability, T/C [3]: 93%
- viability, T/C [4]: 93.4%
- viability, T/C [5]: 56.9%
- viability, T/C [6]: 32.6%
- viability, T/C [7]: 93.9%
- viability, T/C [8]: 104%
- viability, T/C [9]: 94.3%
- viability, T/C [10]: 94.7%
- viability, T/C [11]: 63.1%
- viability, T/C [12]: 34.7%
- viability, T/C [13]: 101%
- viability, T/C [14]: 97.6%
- viability, T/C [15]: 93.8%
- viability, T/C [16]: 97.3%
- viability, T/C [17]: 62.3%
- viability, T/C [18]: 43.7%
- viability, T/C [19]: 108%
- viability, T/C [20]: 101%
- viability, T/C [21]: 90.9%
- viability, T/C [22]: 84.7%
- viability, T/C [23]: 59.9%
- viability, T/C [24]: 36.5%
- viability, T/C [25]: 87.5%
- viability, T/C [26]: 95.3%
- viability, T/C [27]: 87.4%
- viability, T/C [28]: 83%
- viability, T/C [29]: 68.8%
- viability, T/C [30]: 41.6%
- viability, T/C [31]: 96.5%
- viability, T/C [32]: 91.5%
- viability, T/C [33]: 78.2%
- viability, T/C [34]: 92.1%
- viability, T/C [35]: 46.5%
- viability, T/C [36]: 35.5%
